Like-named read-outs stand apart in the source and are kept apart here.
Assays:
[1] = biological target: T1, rat histamine H3 receptor (Rattus norvegicus, UniProt Q9QYN8); assay: Rat H3 radioligand binding ([3H]-N-alpha-methylhistamine, SPA)
T1 construct: encoding the entire 445-amino-acid rat histamine H3 receptor; expressed in transfected cells; membrane preparation
In short: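 SPA-bead binding assay using [3H]-N-alpha-methylhistamine (approximately 1 nM final) with test compounds from 0.01 nM to 30 μM. Rat H3 receptor membranes came from stably transfected CHO-A3 cells; incubation ran 4 h at room temperature, in the dark, in Tris pH 7.4 buffer with MgCl2 and BSA. Clobenpropit (10 μM) gave non-specific binding.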

[2] = biological target: T2, human H3 receptor (Homo sapiens, UniProt Q9Y5N1); assay: Human H3 radioligand binding ([3H]-N-alpha-methylhistamine, SPA)
T2 construct: expressed in transfected cells
T2 sequence (Q9Y5N1 whole entry): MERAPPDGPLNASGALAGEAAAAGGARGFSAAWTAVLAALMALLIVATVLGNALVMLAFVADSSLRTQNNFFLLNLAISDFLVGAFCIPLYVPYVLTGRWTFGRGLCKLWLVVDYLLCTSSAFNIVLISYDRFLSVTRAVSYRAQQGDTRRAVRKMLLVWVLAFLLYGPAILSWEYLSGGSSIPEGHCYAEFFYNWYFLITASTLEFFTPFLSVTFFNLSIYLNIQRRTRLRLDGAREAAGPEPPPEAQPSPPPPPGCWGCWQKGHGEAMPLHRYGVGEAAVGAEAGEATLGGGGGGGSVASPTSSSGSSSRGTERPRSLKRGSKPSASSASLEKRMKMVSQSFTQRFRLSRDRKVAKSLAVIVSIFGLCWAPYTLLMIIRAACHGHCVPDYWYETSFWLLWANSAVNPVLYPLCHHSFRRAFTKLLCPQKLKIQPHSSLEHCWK
In short: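 Compounds (0.01 nM-30 μM) competed with approximately 1 nM [3H]-N-alpha-methylhistamine for human H3 receptor in membranes of stably transfected CHO cells, 10 μg protein per well, in Tris-HCl pH 7.4/MgCl2/BSA buffer for 4 h at room temperature. Bound radioligand measured by scintillation proximity; 10 μM clobenpropit gave non-specific binding.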

[3] = rat H3 binding, Table D, read-out: Rat H3 Ki
[4] = human H3 binding, Table D, read-out: Human H3 Ki
[5] = Rat H3 binding, Table B, Examples 136-362, read-out: rat H3 binding Ki
[6] = Human H3 binding, Table B, Examples 136-362, read-out: hum H3 binding Ki
[7] = Table A, rat H3 binding, read-out: Rat Ki
[8] = Table A, human H3 binding, read-out: Human Ki
[9] = Table C, rat H3 binding, read-out: Rat H3 Ki
[10] = Table C, human H3 binding, read-out: Human H3 Ki

T1 sequence (Q9QYN8 whole entry): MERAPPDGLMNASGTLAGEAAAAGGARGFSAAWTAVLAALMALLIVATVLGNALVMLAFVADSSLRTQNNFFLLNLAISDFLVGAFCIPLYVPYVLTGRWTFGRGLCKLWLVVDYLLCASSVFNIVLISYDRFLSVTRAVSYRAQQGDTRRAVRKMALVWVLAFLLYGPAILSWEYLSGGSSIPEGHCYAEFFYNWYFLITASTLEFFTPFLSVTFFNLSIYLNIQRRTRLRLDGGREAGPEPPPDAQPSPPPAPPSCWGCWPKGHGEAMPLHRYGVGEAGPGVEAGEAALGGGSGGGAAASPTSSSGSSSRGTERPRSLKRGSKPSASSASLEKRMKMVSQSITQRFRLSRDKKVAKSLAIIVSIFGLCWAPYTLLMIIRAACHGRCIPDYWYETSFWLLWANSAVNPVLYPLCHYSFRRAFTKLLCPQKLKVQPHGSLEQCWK

| SMILES | Ki [1, 3] [nM] | melting point [°C] | Ki [2, 4] [nM] | Ki [1, 5] [nM] | Ki [2, 6] [nM] | further results |
| --- | --- | --- | --- | --- | --- | --- |
| O=C1N(c2ccc(C(F)(F)F)nc2)CCN1c1ccc2c(c1)COC1(CCN(C3CCC3)CC1)O2 [Example 242] |  | 222 to 224 |  | < 200 | < 200 |  |
| CNC(=O)c1ccc(-c2cc3c(cc2Cl)OC2(CCN(C4CCC4)CC2)OC3)cc1F [Example 272] |  | 70 to 72 |  | < 200 | < 200 |  |
| COCCNC(=O)c1ccc(-c2ccc3c(c2)CCC2(CCN(C4CCC4)C2)O3)cc1F (stereo not drawn) [Example 337] |  | 58 to 60 |  | < 200 | < 200 |  |
| O=C(Nc1ccc2c(c1)COC1(CCN(C3CCC3)CC1)O2)c1ccncc1Cl [Example 221] |  | 192 to 193 |  | < 200 | < 200 |  |
| Cn1ccc(-c2ccc3c(c2)COC2(CCN(C4CCC4)CC2)O3)cc1=O [Example 547] |  | 208 to 209 |  |  |  | Ki ([1]; read-out: Rat H3 kI): < 200 nM; Ki ([2]; read-out: Human H3 Ki): < 200 nM |
| CC(C)NC(=O)c1ccc(-c2ccc3c(c2)CCC2(CCN(C4CCC4)CC2)O3)cc1F [Example 355] |  | 131 to 132 |  | < 200 | < 200 |  |
| O=C(Nc1ccc2c(c1)COC1(CCN(C3CCC3)CC1)O2)c1ccncc1 [Example 150] |  | 180 to 182 |  | < 200 | < 200 |  |
| CC(C)NS(=O)(=O)c1ccc(-c2ccc3c(c2)COC2(CCN(C4CCC4)CC2)O3)cc1 [Example 35] |  | 85 to 90 |  |  |  | Ki [1, 7]: < 200 nM; Ki [2, 8]: < 200 nM |
| O=C(c1cccc(-c2ccc3c(c2)COC2(CCN(C4CCC4)CC2)O3)c1)N1CCCC1 [Example 57] |  | 221.7 |  |  |  | Ki [1, 7]: < 200 nM; Ki [2, 8]: < 200 nM |
| COCCNC(=O)c1ccc(-c2ccc3c(c2)CCC2(CCN(C4CCC4)CC2)O3)cc1Cl [Example 332] |  | 231 to 232 |  | < 200 | < 200 |  |
| CC(=O)N(c1ccc2c(c1)COC1(CCN(C3CCC3)CC1)O2)c1ccccn1 [Example 253] |  | 53 to 55 |  | < 200 | < 200 |  |
| Fc1ncccc1-c1ccc2c(c1)COC1(CCN(C3CCC3)CC1)O2 [Example 47] |  | 95 to 100 |  |  |  | Ki [1, 7]: < 200 nM; Ki [2, 8]: < 200 nM |
| COCCN(C)C(=O)c1ccc(-c2ccc3c(c2)COC2(CCN(C4CCC4)CC2)O3)cc1 [Example 306] |  | 232 to 234 |  | < 200 | < 200 |  |
| O=c1cccnn1-c1ccc2c(c1)COC1(CCN(C3CCC3)CC1)O2 [Example 228] |  | 173 to 174 |  | 200 to 1000 | 200 to 1000 |  |
| c1cc(CNc2ccc3c(c2)COC2(CCN(C4CCC4)CC2)O3)cs1 [Example 336] |  | 101 to 102 |  | < 200 | < 200 |  |
| O=c1ccc(Cc2ccc3c(c2)COC2(CCN(C4CCC4)CC2)O3)c[nH]1 [Example 527] |  | 194 to 196 |  |  |  | Ki ([1]; read-out: Rat H3 kI): < 200 nM; Ki ([2]; read-out: Human H3 Ki): < 200 nM |
| O=C(Nc1ccc2c(c1)COC1(CCN(C3CCC3)CC1)O2)c1cc[nH]c(=O)c1 [Example 278] |  | 260 to 262 |  | < 200 | < 200 |  |
| OC1(c2ccc3c(c2)CCC2(CCN(C4CCC4)CC2)O3)CCSCC1 [Example 532] |  | 146 to 148 |  |  |  | Ki ([1]; read-out: Rat H3 kI): < 200 nM; Ki ([2]; read-out: Human H3 Ki): < 200 nM |
| COc1ncc(Oc2ccc3c(c2)CCC2(CCN(C4CCC4)CC2)O3)cn1 [Example 503] |  | 227 to 229 |  |  |  | Ki ([1]; read-out: Rat H3 kI): < 200 nM; Ki ([2]; read-out: Human H3 Ki): < 200 nM |
| c1csc(N2CCN(c3ccc4c(c3)CCC3(CCN(C5CCC5)CC3)O4)CC2)n1 [Example 374] |  | 182 to 184 |  |  |  | Ki [1, 9]: < 200 nM; Ki [2, 10]: < 200 nM |
| CN(C)c1cc(C(=O)Nc2ccc3c(c2)COC2(CCN(C4CCC4)CC2)O3)ccn1 [Example 314] |  | 213 to 215 |  | < 200 | < 200 |  |
| O=S(=O)(c1ccc(-c2ccc3c(c2)COC2(CCN(C4CCC4)CC2)O3)cc1)N1CCCCC1 [Example 37] |  | 85 to 90 |  |  |  | Ki [1, 7]: < 200 nM; Ki [2, 8]: < 200 nM |
| O=C(c1ccc(-c2ccc3c(c2)CCC2(CCN(C4CCC4)CC2)O3)cc1F)N1CCC(O)CC1 [Example 240] |  | 102.8 to 104.6 |  | < 200 | < 200 |  |
| c1ccc(COc2ccc(-c3ccc4c(c3)COC3(CCN(C5CCC5)CC3)O4)cn2)cc1 [Example 529] |  | 139 to 141 |  |  |  | Ki ([1]; read-out: Rat H3 kI): 200 to 1000 nM; Ki ([2]; read-out: Human H3 Ki): < 200 nM |
| CN(C)C(=O)N1CCN(c2ccc3c(c2)CCC2(CCN(C4CCC4)CC2)O3)CC1 [Example 392] |  | 272 to 274 |  |  |  | Ki [1, 9]: < 200 nM; Ki [2, 10]: < 200 nM |
| O=C(Nc1ccc2c(c1)CCC1(CCN(C3CCC3)CC1)O2)c1cc(-c2ccccc2)ncn1 [Example 249] |  | 153 to 155 |  | < 200 | < 200 |  |

The next lines start with results.

| Ki [1, 3] [nM] | melting point [°C] | Ki [2, 4] [nM] | Ki [1, 5] [nM] | Ki [2, 6] [nM] | SMILES | further results |
| --- | --- | --- | --- | --- | --- | --- |
| < 200 | 97 to 99 | < 200 |  |  | CN(C)S(=O)(=O)c1ccc(-c2ccc3c(c2)COC2(CCN(C4CCC4)CC2)O3)cc1Cl [Example 621] |  |
|  | 49 to 51 |  |  |  | C=CCOC1(c2ccc3c(c2)COC2(CCN(C4CCC4)CC2)O3)CC(C(=O)N2CCCC2)C1 (stereo not drawn) [Example 561] | Ki ([1]; read-out: Rat H3 kI): 200 to 1000 nM; Ki ([2]; read-out: Human H3 Ki): 200 to 1000 nM |
| < 200 | 142.6 to 145.1 | < 200 |  |  | CC(C)S(=O)(=O)C1CCN(c2ccc3c(c2)COC2(CCN(C4CCC4)CC2)O3)CC1 [Example 656] |  |
| > 1000 | 262 to 264 | > 1000 |  |  | O=c1ccc(-c2ccc3c(c2)COC2(CCN(C4COC4)CC2)O3)c[nH]1 [Example 718] |  |
| < 200 | 63 to 68 | < 200 |  |  | OC(c1ccc2c(c1)COC1(CCN(C3CCC3)CC1)O2)c1cscn1 (stereo not drawn) [Example 697] |  |
| < 200 | 168 to 169 | < 200 |  |  | OCc1ccc(-c2ccc3c(c2)COC2(CCN(C4CCC4)CC2)O3)s1 [Example 641] |  |
| < 200 | 241 to 243 | < 200 |  |  | CC(C)(C)N1CCC2(CC1)OCc1cc(-c3ccc(=O)[nH]c3)ccc1O2 [Example 733] |  |
| < 200 | 170 to 173 | < 200 |  |  | O=C(NC1CCOCC1)c1ccc(-c2ccc3c(c2)COC2(CCN(C4CCC4)CC2)O3)c(Cl)c1 [Example 686] |  |
| < 200 | 158 to 160 | < 200 |  |  | O=C(NC1CCOCC1)c1cccc(COc2ccc3c(c2)CCC2(CCN(C4CCC4)CC2)O3)c1 [Example 646] |  |
| < 200 | 193 to 195 | < 200 |  |  | O=C(NC1CCOCC1)c1ccc(-c2ccc3c(c2)COC2(CCN(C4CCC4)CC2)O3)cc1O [Example 705] |  |
| < 200 | 88.9 to 91.4 | < 200 |  |  | OCC1CCN(c2ccc3c(c2)COC2(CCN(C4CCC4)CC2)O3)CC1 [Example 601] |  |
| > 1000 | 162 to 164 | 200 to 1000 |  |  | COc1ccc(-c2ccc3c(c2)COC2(CCN(C4COC4)CC2)O3)cn1 [Example 713] |  |
|  | 116 to 118 |  |  |  | COC1(c2ccc3c(c2)COC2(CCN(C4CCC4)CC2)O3)CCC(F)(F)CC1 [Example 556] | Ki ([1]; read-out: Rat H3 kI): < 200 nM; Ki ([2]; read-out: Human H3 Ki): < 200 nM |
| < 200 | 167 to 170 | < 200 |  |  | CN(C)C(=O)c1cccc(COc2ccc3c(c2)CCC2(CCN(C4CCC4)CC2)O3)n1 [Example 670] |  |
| < 200 | 267 to 269 | < 200 |  |  | NC(=O)c1ccc(-c2ccc3c(c2)COC2(CCN(C4CCC4)CC2)O3)cc1O [Example 743] |  |
| > 1000 | 260 to 262 | > 1000 |  |  | COc1ccc(-c2ccc3c(c2)COC2(CCN(C4CC(C(=O)O)C4)CC2)O3)cn1 (stereo not drawn) [Example 734] |  |
| < 200 | 198 to 201 | < 200 |  |  | CS(=O)(=O)c1ccc(-c2ccc3c(c2)COC2(CCN(C4CCC4)CC2)O3)cc1Cl [Example 622] |  |
| < 200 | 51.2 to 54.2 | < 200 |  |  | CN(C)C(=O)C1CCCN(c2ccc3c(c2)COC2(CCN(C4CCC4)CC2)O3)C1 (stereo not drawn) [Example 612] |  |
| < 200 | 80 to 82 | < 200 |  |  | CN(C)C(=O)c1ccc(-c2ccc3c(c2)COC2(CCN(C4CCC4)CC2)O3)cc1Cl [Example 608] |  |
| < 200 | 178 to 179 | < 200 |  |  | COCc1noc(COc2ccc3c(c2)CCC2(CCN(C4CCC4)CC2)O3)n1 [Example 672] |  |
| < 200 | 189 to 191 | < 200 |  |  | O=C(N[C@@H]1CCOC1)c1ccc(-c2ccc3c(c2)COC2(CCN(C4CCC4)CC2)O3)cc1Cl [Example 605] |  |
| < 200 | 230 to 231 | < 200 |  |  | Cn1cc(-c2ccc3c(c2)COC2(CCN(C4CCC4)CC2)O3)cnc1=O [Example 680] |  |
| 200 to 1000 | 123 to 125 | 200 to 1000 |  |  | COc1ccc(-c2ccc3c(c2)COC2(CCN(C4CC(CO)C4)CC2)O3)cn1 (stereo not drawn) [Example 717] |  |

Source: US8513232B2, “Substituted spirocyclic piperidine derivatives as histamine-3 (H3) receptor ligands” (Cephalon, Inc., priority 2008, dated 2013)
